Data reported in patent US10251395B2, “Substituted furano-/thienocycloalkylamino-2-pyrimidine derivatives and use thereof for controlling undesired plant growth” (Bayer CropScience Aktiengesellschaft, priority 2015, dated 2019).

Assays:
Assay type in all cases: in vivo
[1] = test system: Alopecurus myosuroides; assay: Pre-emergence herbicidal effect; settings: Dosage 320 g/ha, scored visually after 3 weeks
Source text: (§1) Seeds of monocotyledonous and dicotyledonous weed plants and crop plants are laid out in wood-fiber pots in sandy loam and covered with soil. The compounds of the invention, formulated in the form of wettable powders (WP) or as emulsion concentrates (EC), are then applied to the surface of the covering soil as aqueous suspension or emulsion at a water application rate equating to 600 to 800 L/ha with addition of 0.2% wetting agent.
(§2) After the treatment, the pots are placed in a greenhouse and kept under good growth conditions for the trial plants. The damage to the test plants is scored visually after a test period of 3 weeks by comparison with untreated controls (herbicidal activity in percent (%): 100% activity=the plants have died, 0% activity=like control plants).
(§3) • ABUTH: Abutilon theophrasti ALOMY: Alopecurus myosuroides • AMARE: Amaranthus retroflexus AVEFA: Avena fatua • CYPES: Cyperus esculentus ECHCG: Echinochloa crus-galli • LOLMU: Lolium multiflorum MATIN: Matricaria inodora • PHBPU: Ipomoea purpurea POLCO: Polygonum convolvulus • SETVI: Setaria viridis STEME: Stellaria media • VERPE: Veronica persica VIOTR: Viola tricolor

[2] = test system: Matricaria inodora; assay: Pre-emergence herbicidal effect; settings: scored visually after 3 weeks
Source text: as §1, §2, §3

[3] = test system: Stellaria media; assay: Pre-emergence herbicidal effect; settings: scored visually after 3 weeks
Source text: as §1, §2, §3

[4] = test system: Veronica persica; assay: Pre-emergence herbicidal effect; settings: scored visually after 3 weeks
Source text: as §1, §2, §3

[5] = test system: Viola tricolor; assay: Pre-emergence herbicidal effect; settings: scored visually after 3 weeks
Source text: as §1, §2, §3

[6] = test system: Amaranthus retroflexus; assay: Pre-emergence herbicidal effect; settings: scored visually after 3 weeks
Source text: as §1, §2, §3

[7] = test system: Polygonum convolvulus; assay: Pre-emergence herbicidal effect; settings: Dosage 320 g/ha, scored visually after 3 weeks
Source text: as §1, §2, §3

[8] = test system: Veronica persica; assay: Post-emergence herbicidal effect
Source text: (§4) • ABUTH: Abutilon theophrasti ALOMY: Alopecurus myosuroides • AMARE: Amaranthus retroflexus AVEFA: Avena fatua • CYPES: Cyperus esculentus ECHCG: Echinochloa crus-galli • LOLMU: Lolium multiflorum MATIN: Matricaria inodora • PHBPU: Ipomoea purpurea POLCO: Polygonum convolvulus • SETVI: Setaria viridis STEME: Stellaria media • VERPE: Veronica persica VIOTR: Viola tricolor Seeds of monocotyledonous and dicotyledonous weed and crop plants are laid out in sandy loam in wood-fiber pots, covered with soil and cultivated in a greenhouse under good growth conditions. 2 to 3 weeks after sowing, the test plants are treated at the one-leaf stage. The compounds of the invention, formulated in the form of wettable powders (WP) or as emulsion concentrates (EC), are then sprayed onto the green parts of the plants as aqueous suspension or emulsion at a water application rate equating to 600 to 800 L/ha with addition of 0.2% wetting agent. After the test plants have been left to stand in the greenhouse under optimal growth conditions for about 3 weeks, the action of the preparations is assessed visually in comparison to untreated controls (herbicidal action in percent (%): 100% activity=the plants have died, 0% activity=like control plants).

[9] = test system: Viola tricolor; assay: Post-emergence herbicidal effect
Source text: as §4

[10] = test system: Amaranthus retroflexus; assay: Post-emergence herbicidal effect; settings: assessed visually after about 3 weeks vs untreated controls
Source text: as §4

[11] = test system: Setaria viridis; assay: Pre-emergence herbicidal effect; settings: Dosage 320 g/ha, scored visually after 3 weeks
Source text: as §1, §2, §3

[12] = test system: Abutilon theophrasti; assay: Post-emergence herbicidal effect; settings: 320 g/ha, assessed visually after about 3 weeks vs untreated controls
Source text: as §4

[13] = test system: Stellaria media; assay: Post-emergence herbicidal effect; settings: assessed visually after about 3 weeks vs untreated controls
Source text: as §4

[14] = 320 g/ha, assessed visually after about 3 weeks vs untreated controls
[15] = 80 g/ha, assessed visually after about 3 weeks vs untreated controls
[16] = dosage not printed (first line of Ex. 30)

Compound	MATIN pre-emergence efficacy (herbicidal activity) ([2]; Dosage 320 g/ha)	STEME pre-emergence efficacy (herbicidal activity) ([3]; Dosage 80 g/ha)	STEME pre-emergence efficacy (herbicidal activity) ([3]; Dosage 320 g/ha)	VERPE pre-emergence efficacy (herbicidal activity) ([4]; Dosage 80 g/ha)	VERPE pre-emergence efficacy (herbicidal activity) ([4]; Dosage 320 g/ha)	VIOTR pre-emergence efficacy (herbicidal activity) ([5]; Dosage 320 g/ha)	AMARE pre-emergence efficacy (herbicidal activity) ([6]; Dosage 320 g/ha)	POLCO pre-emergence efficacy (herbicidal activity) [7]	also measured
CC(=NOC(C)C)c1cnc(NC2CCCc3sc(C)cc32)nc1N (racemic) [compound 342]	100%	100%	100%	100%	100%	–	–	–	ALOMY pre-emergence efficacy (herbicidal activity) [1]: 70%
CON=C(C)c1cnc(NC2CCCc3sccc32)nc1N (racemic) [compound 310]	–	–	90%	–	–	100%	–	–	–
Cc1cc2c(s1)CCCC2Nc1nc(N)c(-c2cncc(F)c2)c(C(C)F)n1 (racemic) [compound 316]	80%	–	100%	–	100%	100%	100%	70%	post-emergence efficacy VERPE [8, 14]: 100%; post-emergence efficacy VIOTR [9, 14]: 80%
Cc1cc2c(s1)CCCC2Nc1nc(N)c(S(C)(=O)=O)c(C(F)(F)F)n1 (racemic) [compound 298]	100%	100%	100%	100%	100%	100%	100%	50%	ALOMY pre-emergence efficacy (herbicidal activity) [1]: 90%; VIOTR pre-emergence efficacy (herbicidal activity) ([5]; Dosage 80 g/ha): 90%; post-emergence efficacy AMARE ([10]; 80 g/ha): 70%; post-emergence efficacy AMARE ([10]; 320 g/ha): 90%; post-emergence efficacy VIOTR [9, 15]: 80%; post-emergence efficacy VIOTR [9, 14]: 80%
C/C(=N/O)c1cnc(NC2CCCc3sc(Cl)cc32)nc1C (racemic) [compound 259]	–	–	100%	–	100%	80%	–	–	SETVI pre-emergence efficacy (herbicidal activity) [11]: 100%
CC(=O)c1cnc(NC2CCCc3sc(Cl)cc32)nc1C (stereo not shown) [compound 303]	90%	100%	100%	100%	100%	90%	100%	60%	AMARE pre-emergence efficacy (herbicidal activity) ([6]; Dosage 80 g/ha): 100%; MATIN pre-emergence efficacy (herbicidal activity) ([2]; Dosage 80 g/ha): 80%; VIOTR pre-emergence efficacy (herbicidal activity) ([5]; Dosage 80 g/ha): 70%
Nc1nc(NC2CCCc3occc32)ncc1C(F)(F)F (racemic) [compound 7]	90%	80%	90%	–	–	100%	100%	–	post-emergence efficacy ABUTH [12]: 40%; post-emergence efficacy STEME ([13]; 320 g/ha): 80%
COc1nc(NC2CCCc3sc(C)cc32)ncc1C(F)(F)F (racemic) [compound 10]	–	–	100%	–	100%	–	80%	–	–
Cc1cc2c(s1)CCCC2Nc1nc(N)c(-c2cncc(F)c2)c(C(F)F)n1 (racemic) [compound 299]	90%	–	–	–	–	100%	100%	–	ALOMY pre-emergence efficacy (herbicidal activity) [1]: 100%; SETVI pre-emergence efficacy (herbicidal activity) [11]: 90%; post-emergence efficacy VIOTR [9, 14]: 90%
Cc1cc2c(s1)CCCC2Nc1ncc(-c2cccc(F)c2)c(N)n1 (racemic) [compound 265]	100%	–	100%	100%	100%	–	–	60%	post-emergence efficacy AMARE ([10]; 80 g/ha): 80%; post-emergence efficacy AMARE ([10]; 320 g/ha): 80%; post-emergence efficacy STEME ([13]; 80 g/ha): 60%; post-emergence efficacy STEME ([13]; 320 g/ha): 60%; post-emergence efficacy VERPE [8, 15]: 90%; post-emergence efficacy VERPE [8, 14]: 90%; post-emergence efficacy VIOTR [9, 15]: 80%; post-emergence efficacy VIOTR [9, 14]: 80%
Cc1sc(C)c2c1CCCC2Nc1ncc(C(F)(F)F)c(N)n1 (racemic) [compound 2]	80%	–	100%	–	–	100%	–	–	–
Cc1cccc(-c2c(N)nc(NC3CCCc4sc(C)cc43)nc2C(F)F)c1 (racemic) [compound 304]	–	–	100%	100%	100%	–	–	60%	–
Cc1cc2c(s1)CCCC2Nc1ncc(C(=O)C(F)(F)Cl)c(N)n1 (racemic) [compound 30]	100%	90%	100%	90%	100%	100%	100%	–	AMARE pre-emergence efficacy (herbicidal activity) ([6]; Dosage 80 g/ha): 90%; MATIN pre-emergence efficacy (herbicidal activity) ([2]; Dosage 80 g/ha): 100%; SETVI pre-emergence efficacy (herbicidal activity) [11]: 90%; VIOTR pre-emergence efficacy (herbicidal activity) ([5]; Dosage 80 g/ha): 100%; post-emergence efficacy VERPE [8, 16]: 80%; post-emergence efficacy VIOTR [9, 16]: 90%; post-emergence efficacy VIOTR ([9]; dosage not printed (second line of Ex. 30)): 80%
Cc1cc2c(s1)CCCC2Nc1nc(N)c(S(C)(=O)=O)c(C(C)F)n1 (racemic) [compound 318]	90%	–	100%	–	100%	100%	100%	100%	SETVI pre-emergence efficacy (herbicidal activity) [11]: 100%
Cc1cc2c(s1)CCCC2Nc1ncc(-c2cccc(Cl)c2)c(N)n1 (racemic) [compound 297]	100%	80%	100%	100%	100%	90%	–	–	MATIN pre-emergence efficacy (herbicidal activity) ([2]; Dosage 80 g/ha): 90%; VIOTR pre-emergence efficacy (herbicidal activity) ([5]; Dosage 80 g/ha): 70%
N=S(=O)(c1ccccc1)c1cnc(NC2CCCc3sccc32)nc1N (racemic) [compound 27]	100%	–	100%	–	100%	100%	100%	–	MATIN pre-emergence efficacy (herbicidal activity) ([2]; Dosage 80 g/ha): 90%
Cc1cc2c(s1)CCC2Nc1ncc(S(=O)(=O)NCc2ccc(F)cc2)c(N)n1 (racemic) [compound 38]	100%	–	–	–	90%	–	90%	–	post-emergence efficacy AMARE ([10]; 320 g/ha): 80%; post-emergence efficacy VERPE [8, 14]: 90%
